Measurements from US9522888B2, “Substituted bicyclic compounds” (BRISTOL-MYERS SQUIBB COMPANY, priority 2014, dated 2016).
“Also recorded” adds a separate entry of the source.

Key:
circulating lymphocytes [1] = experiment: Blood Lymphocyte Reduction (BLR) assay in rat; type: in vivo, Lewis rats; details: oral, 0.1 mg/kg
Experimental: (§1) Blood Lymphocyte Reduction (BLR) Assay in Rodent:
(§2) Lewis rats or BALB/c mice were dosed orally with vehicle alone (polyethylene glycol 300, “PEG300”) or with test compounds. Compounds were dosed as a solution or suspension in the vehicle, adjusted to reflect the free amount of test article in the event that salt forms are utilized. Blood was drawn at 24 hr and blood lymphocyte counts were determined on an ADVIA 120 Hematology Analyzer (Siemens Healthcare Diagnostics). The results were measured as a reduction in the percentage of circulating lymphocytes as compared to the vehicle treated group at the time of measurement. The results represent the average results of all animals within each treatment group (n=2-4).

circulating lymphocytes [2] = experiment: Blood Lymphocyte Reduction (BLR) assay in mouse; type: in vivo, BALB/c mice; details: oral, 0.5 mg/kg
Experimental: as §1, §2

[3] = tested on: MOG35-55 induced EAE, clinical score; experiment: Mouse Experimental Autoimmune Encephalomyelitis Assay (EAE); type: in vivo, C57BL/6 mice; details: for Clinical scores on day 22, Mean: C57BL/6 mice, prophylactic oral
anti-dsDNA antibodies = experiment: MRL/lpr lupus model: anti-dsDNA antibody titers (ELISA); type: in vivo, Male MRL/lpr mice; details: MRL/lpr mice; for Anti-dsDNA antibody titers (23 weeks of age) (Mean): ratio to pooled MRL/lpr immune serum titer
Experimental: (§3) MRL/lpr is a spontaneous model of lupus. Male MRL/lpr mice (Jackson Laboratory) at the age of 12-14 weeks were enrolled for the study (N=12). Mice were dosed p.o. daily with vehicle (18.4% (w/v) hydroxypropyl-b-cyclodextrin in 13.8 mM citric acid) or with Example 681 at 0.06, 0.3, 1.5 mg/kg. Mice were bled every other week for anti-dsDNA antibodies measured by ELISA using pooled serum from diseased MRL/lpr mice as a positive comparator in each assay. The data were expressed in arbitrary units as a ratio of the titer of the test serum to the titer of the pooled MRL/lpr immune serum.

kidney histology score = experiment: MRL/lpr lupus model: kidney histological analysis; type: in vivo, Male MRL/lpr mice; details: MRL/lpr mice; for Kidney Histology (nephritis) 23 weeks of age (Mean): total score, highest possible score=36
Experimental: as §3
At the end of study, one kidney was collected into 10% neutral buffered formalin and ZincTris fixatives. Fixed tissues were processed into paraffin blocks, sectioned at 3 μm, and stained with H&E or PASH. Kidney sections were graded using following criteria: Glomerular Damage: 1. Mesangial matrix thickening, cell proliferation, 2. Crescent formation, cellular deposits/casts in Bowman's space, 3. Cellular infiltration, mononuclear cells in glomerular tufts, 4. Fibrosis of Bowman's capsule. Tubular damage: 1. Infiltration of mononuclear cells, 2. Severity of tubular damage, 3. Protein casts. Tubulo-interstitial damage: 1. Fibrosis, 2. Infiltration of mononuclear cells. Each subcategory was assigned a score from 0-4, with the scores for glomerular indices representing the mean from 20 glomeruli per kidney. The total score for each mouse was the sum of the above 9 subcategories, with the highest possible score=36.

[4] = p.o. daily 0.06, 0.3, 1.5 mg/kg, result in words

COc1ccccc1CC[C@@H]1CCc2cc([C@H]3CC[C@](N)(CO)C3)ccc2C1 [Example 681, ((1R,3S)-1-amino-3-((S)-6-(2-methoxyphenethyl)-5,6,7,8-tetrahydronaphthalen-2-yl)cyclopentyl)methanol]
Percent reduction vs. control at 24 hr post-dose (circulating lymphocytes [1]; blood lymphocytes, 24 hr post-dose): 53%
lymphocyte reduction (circulating lymphocytes [1]; rodent BLR assay, 24 hours post-dose, versus vehicle treated group): 53%
lymphocyte reduction (circulating lymphocytes [2]; mice, 24 hours post dose): 85%
Mouse Blood Lymphocyte Reduction Assay at 24 hr post-dose Percent reduction vs. control (circulating lymphocytes [2]; mouse, 24 hr post-dose): 85%
Clinical scores on day 22, Mean ([3]; 0.1 mg/kg): 3.1
Clinical scores on day 22, Mean ([3]; 0.5 mg/kg): 1.1
Clinical scores on day 22, Mean ([3]; 2 mg/kg): 0.8
inhibition of disease progression as measured by clinical scores ([3]; C57Bl/6 mice, prophylactic oral dosing regimen, result in words): showed inhibition of disease progression; also recorded: inhibit disease progression
Anti-dsDNA antibody titers (23 weeks of age) (Mean) (anti-dsDNA antibodies; 0.06 mg/kg p.o. daily): 1.861 arbitrary units
Anti-dsDNA antibody titers (23 weeks of age) (Mean) (anti-dsDNA antibodies; 0.3 mg/kg p.o. daily): 0.978 arbitrary units
Anti-dsDNA antibody titers (23 weeks of age) (Mean) (anti-dsDNA antibodies; 1.5 mg/kg p.o. daily): 1.023 arbitrary units
inhibition of disease progression as measured by anti-dsDNA titers (anti-dsDNA antibodies; [4]): showed inhibition of disease progression
Kidney Histology (nephritis) 23 weeks of age (Mean) (kidney histology score; 0.06 mg/kg p.o. daily): 10.13
Kidney Histology (nephritis) 23 weeks of age (Mean) (kidney histology score; 0.3 mg/kg p.o. daily): 10.00
Kidney Histology (nephritis) 23 weeks of age (Mean) (kidney histology score; 1.5 mg/kg p.o. daily): 12.63
inhibition of disease progression as measured by kidney histology (kidney histology score; [4]): showed inhibition of disease progression
